Reference: PubChem BioAssay (NCI)
Several values for one entry are separate records, joined by “and”; a condition that tells them apart may be missing. Equal values may be shown once.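 Five concentrations, 48 hours, 96-well plates. GI50: concentration for 50% inhibition of growth. TGI is the concentration that stops growth completely.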

Legend:
Experiment in all cases: NCI-60 cell line screen, 48 h
[1] = test system: UACC-257 melanoma
[2] = test system: TK-10 renal
[3] = test system: CCRF-CEM leukemia
[4] = test system: UO-31 renal
[5] = test system: HL-60(TB) leukemia
[6] = test system: MOLT-4 leukemia
[7] = test system: RPMI-8226 leukemia
[8] = test system: CAKI-1 renal
[9] = test system: HOP-62 NSCLC
[10] = test system: M14 melanoma

Structure (SMILES)	GI50 [1]	TGI [1]	GI50 [2]	TGI [2]	GI50 [3]	TGI [3]	GI50 [4]	TGI [4]	GI50 [5]	TGI [5]	GI50 [6]	TGI [6]	GI50 [7]	TGI [7]	GI50 [8]	TGI [8]	GI50 [9]	TGI [9]	GI50 [10]	TGI [10]
N#Cc1c(C(=O)c2ccccc2)cnn1-c1ccccc1	> 25 µM	> 25 µM	> 25 µM	> 25 µM	> 25 µM	> 25 µM	> 25 µM	> 25 µM	> 25 µM	> 25 µM	> 25 µM	> 25 µM	> 25 µM	> 25 µM	> 25 µM	> 25 µM	> 25 µM	> 25 µM	> 25 µM	> 25 µM
O=c1cccc(C#CC#C[C@H]2O[C@@H]2CO)o1	1.16 µM	2.91 µM	0.495 µM	1.93 µM	0.17 µM	0.431 µM	2.59 µM	6.29 µM	1.47 µM	> 100 µM	0.154 µM	> 100 µM	0.101 µM	0.331 µM	0.189 µM	0.359 µM	0.423 µM	1.54 µM	1.23 µM	
COC(=O)C(CCS(=O)(=O)CC(=O)C(=O)Nc1cccc(C(C)=O)c1)C(=O)OC		> 100 µM		> 100 µM		> 65.5 µM		> 100 µM		> 100 µM		> 100 µM		> 69.4 µM		> 100 µM		> 100 µM		> 100 µM
COc1c(O)c2c(c3cc(C(=O)N4CCc5c4c(O)c(OC)c4[nH]c(C(=O)N6CC7CC78C6=CC(=O)c6[nH]cc(C)c68)cc54)[nH]c13)CCN2C(N)=O (stereo not given)	1.34 µM		25.9 ng/mL	222 nM and 0.0678 µg/mL	4.39 ng/mL	963 nM and 0.0344 µg/mL	0.223 µM		7 ng/mL	43.9 ng/mL	6.42 ng/mL	456 nM and 0.0737 µg/mL		313 nM and 11.9 µM and 0.159 µg/mL		5.31 nM and > 100 µM and 0.00582 µg/mL	2.51 nM and 0.0165 µg/mL	14.6 nM and 0.0745 µg/mL	0.172 µM	
O=C1C(Cl)=C(Cl)C(=O)N1C1C2CC3CC(C2)CC1C3 (stereo not given)		> 100 µM		> 100 µM		64.7 µM		> 100 µM		79.4 µM		> 83.3 µM		> 80.5 µM		> 66.9 µM		> 100 µM		> 100 µM
CCCN(CCCCC(NC(C)=O)C(=O)NCc1ccccc1)C(=O)NCCCl (stereo not given)		> 100 µM		> 100 µM		> 100 µM		> 100 µM		> 100 µM		> 100 µM		> 100 µM		> 100 µM		> 100 µM		> 100 µM
C=C1[C@@H](C)[C@H]2[C@H](Cc3ccccc3)NC(=O)[C@]23OC(=O)/C=C/[C@H](O)CCC[C@@H](C)C/C=C/[C@H]3[C@@H]1O		59.9 µM		47 µM		57.4 µM		4.12 µM		90 µM		72.3 µM		39.6 µM		4.51 µM		15 µM		> 100 µM
CC(C)N(C(=O)C12C3C4C5(C#N)C3C1(I)C5C42I)C(C)C (stereo not given)		> 100 µM		> 100 µM		> 61.8 µM		> 100 µM		> 63.6 µM		> 100 µM		> 67.2 µM		> 100 µM		> 100 µM		> 100 µM
O=C(O)c1cc2ccccc2c(O)c1O		23.1 µM		40.7 µM		> 58.6 µM		35.4 µM		> 74.3 µM		> 66.8 µM		> 76.1 µM		33.9 µM		33 µM		16.3 µM
Cc1ccc(C(=O)Nc2ccc(CN3CCN(C)CC3)c(C(F)(F)F)c2)cc1C#Cc1cnc(N)cc1C#N	0.132 µM	0.834 µM	0.19 µM	0.833 µM	0.46 µM	9.61 µM	0.0949 µM	0.442 µM	0.233 µM	1.08 µM	0.137 µM	1.08 µM	0.496 µM	2.7 µM	0.0828 µM	0.538 µM	0.298 µM	2.05 µM	0.021 µM	0.511 µM
CC(CN(CP(=O)([O-])[O-])CP(=O)([O-])[O-])N(CP(=O)([O-])[O-])CP(=O)([O-])[O-].N.N.[Pt+2] (stereo not given)	> 100 µM	> 100 µM	> 100 µM	> 100 µM	> 100 µM	> 100 µM	> 100 µM	> 100 µM	> 100 µM	> 100 µM	> 100 µM	> 100 µM	> 100 µM	> 100 µM	> 100 µM	> 100 µM	> 100 µM	> 100 µM	> 100 µM	> 100 µM
NC(=O)c1cnc(N[C@@H]2CCCC[C@@H]2N)nc1Nc1cccc(-n2nccn2)c1	2.02 µM	4.49 µM	5.55 µM	17.8 µM	5 µM	19.8 µM	3.32 µM	14.7 µM	1.5 µM	3.82 µM	2.94 µM	12.7 µM	6.7 µM	23 µM	2.47 µM	8.09 µM	4.69 µM	17.7 µM	2.11 µM	6.14 µM
COc1ccccc1-[n+]1cc(-c2ccc(-c3ccccc3)cc2)n2c1CCCCC2	0.318 µM	12.9 µM	0.638 µM	13 µM	0.224 µM	23.9 µM	2.19 µM	11.1 µM	0.0429 µM	1.01 µM	0.292 µM	3.97 µM		1.53 µM	11.5 µM	33.4 µM	1.29 µM	15.4 µM	0.443 µM	10.1 µM
COC(=O)C1=C(C)N(NC(N)=O)C2(N)N(NC(N)=O)C(C)=C(C(=O)OC)C12C(=O)OC (stereo not given)		> 100 µM		> 100 µM		> 100 µM		> 100 µM		> 100 µM		> 100 µM		> 100 µM		> 100 µM		> 100 µM		> 100 µM
COc1ccc(-n2c(SCc3cc(OC)c(OC)c(OC)c3)nc3ccc(C)cc3c2=O)c(OC)c1	7.81 µM	> 100 µM	93.8 µM	> 100 µM	2.38 µM	6.69 µM	2.76 µM	> 100 µM	2.14 µM	4.77 µM	3.15 µM	> 100 µM	2.44 µM	> 100 µM	2.97 µM	> 100 µM	18.8 µM	> 100 µM	2.7 µM	8.55 µM
CC12CCC3C(CC=C4CC(O)CCC43C)C1C/C(=C\N1CCCC1)C2=O (stereo not given)	> 100 µM	> 100 µM	> 100 µM	> 100 µM	79.3 µM	> 100 µM	67.2 µM	> 100 µM	75.3 µM	> 100 µM	> 100 µM	> 100 µM	37 µM	> 100 µM	61.2 µM	> 100 µM	> 100 µM	> 100 µM	> 100 µM	> 100 µM
CCCCCCCCCC(=O)CC(=O)c1ccc(O)cc1O		71.2 µM		> 100 µM		> 100 µM		98 µM		53.9 µM		49.7 µM		59.6 µM		85.9 µM		46.5 µM		54.7 µM
O=C1CCC(Cc2ccc(Cl)cc2Cl)C(=O)N1 (stereo not given)		> 100 µM		> 100 µM		> 100 µM		> 100 µM		> 100 µM		> 100 µM		> 100 µM		> 100 µM		> 100 µM		> 100 µM
O=C(/C=C/c1cccnc1)NCCCCC1CCN(C(=O)c2ccccc2)CC1	> 100 µM	> 100 µM	> 100 µM	> 100 µM	< 0.01 µM	> 100 µM	> 100 µM	> 100 µM	> 65.6 µM	> 100 µM	31.1 µM and 21.7 µM	> 100 µM		> 100 µM	> 100 µM	> 100 µM	> 100 µM	> 100 µM	< 0.01 µM	> 100 µM
CC1=C([Se]CC(OC(=O)CC[Se]c2ccccc2)C(=O)NCCCCCC(=O)OCc2ccccc2)C(=O)c2ccccc2C1=O (stereo not given)	2.78 µM	7.9 µM	4.47 µM	12.4 µM	3.61 µM	> 100 µM	2.07 µM	7.41 µM	2.75 µM	8.25 µM	3.61 µM	31.2 µM	3.18 µM	12.9 µM	2.57 µM	7.72 µM	1.87 µM	4.32 µM	2.04 µM	4.8 µM
CCN1C2=NC(=O)N(C)C(=O)C2(Cl)C(C(SC)S(=O)(=O)c2ccc(C)cc2)c2ccccc21 (stereo not given)		> 100 µM		> 100 µM		25.7 µM		76.1 µM		19.7 µM		13.3 µM		41.6 µM		> 100 µM		> 100 µM		52.5 µM
COc1ccc(/C=C/C(=O)c2cc3c(N)c(C(=O)Nc4ccccc4Cl)sc3nc2C)cc1	1.19 µM	13.5 µM	2.64 µM	30.5 µM	10.4 µM	> 50 µM	1.17 µM	3.94 µM	1.74 µM	> 50 µM	4.59 µM	> 50 µM	5.72 µM	> 50 µM	7.51 µM	> 50 µM	1.62 µM	8.02 µM	0.481 µM	> 50 µM
Clc1ccc(Cl)c2[s+]snc12		> 100 µM		> 100 µM		> 100 µM		> 100 µM		> 100 µM		> 100 µM		> 77.6 µM		> 100 µM		> 100 µM		> 100 µM
Cc1c(C#N)cccc1-c1cc(-c2cn(Cc3cccc(C(C)(C)O)n3)nn2)nc(N)n1	27.7 µM	> 100 µM	18.2 µM	> 100 µM	16.3 µM	> 100 µM	10.7 µM	> 100 µM	12.2 µM	46 µM	21.3 µM	> 100 µM	7.57 µM	34.9 µM	10.4 µM	> 100 µM	22.2 µM	> 100 µM	21.7 µM	> 100 µM
COC(=O)C1CC(C(=O)OC)c2nc3cc(C)ccc3nc21 (stereo not given)		> 100 µM		> 100 µM		> 100 µM		> 100 µM		> 100 µM		> 100 µM		> 100 µM		> 100 µM		> 100 µM		> 100 µM
Oc1ccc(Cc2ccc(O)c3ncccc23)c2cccnc12	0.236 µM	0.709 µM	0.238 µM	0.996 µM	0.209 µM	> 100 µM	0.0322 µM	> 100 µM	0.263 µM	> 100 µM	0.231 µM	> 100 µM	0.0424 µM	1.55 µM	0.341 µM	> 100 µM	0.0442 µM	1.09 µM	0.0423 µM	> 100 µM
C(=N\Nc1ccccn1)/c1ccccn1	0.453 µM			> 100 µM	0.446 µM	> 100 µM	0.267 µM	> 34.1 µM	0.272 µM	2.53 µM	0.392 µM	> 100 µM	6.17 µM	> 100 µM	0.257 µM	> 50.7 µM	0.38 µM	> 100 µM	0.313 µM	57.2 µM
C/C(=N/S(=O)(=O)c1ccc(Cl)c(Cl)c1)OCC(C)(C)C		> 100 µM		> 100 µM		> 100 µM		> 100 µM		> 100 µM		> 100 µM		> 100 µM		> 100 µM		> 100 µM		> 100 µM
CC(=O)Nc1ccc(/C=C/[N+](=O)[O-])cc1		17 µM		6.89 µM		7.48 µM		4.58 µM		6.44 µM		4.37 µM		4.73 µM		2.78 µM		21.4 µM		7.01 µM
